Results as given in patent US5567805A, “The cellular receptor for the CS3 peptide of human immunodeficiency virus” (priority 1994, dated 1996).

Legend:
CS3 binding domain = assay: CS3 binding on RH9 cells stimulated with anti-CD3 or TPA; format: cell-based, human
Method: (§1) FIG. 11. Cultures of RH9 cells were incubated with 10 ng/ml PMA (TPA) or 10 μg/ml antibody to the CD3 cell surface antigen or in medium alone. Comparisons are presented for each day of analysis for expression of CD4 (left panel) or CS3 binding (right panel). 0.50% of RH9 cells bound CS3-HSA-FITC. Relative to control cultures treatment with anti-CD3 increased CS3 domain expressing cells by 71% at 48 hours and 56% at 72 hours, while TPA increased CS3-binding by 32% at 72 hours. CS3-HSA-FITC fluorescence intensity, reflecting the number of receptors per cell, increased while CD4 expression decreased in intensity and number of positive cells (8% at 24 hours).

CD4 = CD4 expression on RH9 cells stimulated with TPA; format: cell-based, human
Method: as §1

CCCCCCCCCCCCCC(=O)O[C@@H]1[C@@H](C)[C@@]2(O)[C@@H](C=C(CO)C[C@]3(O)C(=O)C(C)=C[C@@H]23)[C@@H]2C(C)(C)[C@]12OC(C)=O [TPA, tetraphorbol 13-myristyl acetate]
CS3 binding / receptor density after stimulation (CS3 binding domain): CS3 binding was increased | increase in CS3 domain expressing cells / CS3-binding relative to control cultures (CS3 binding domain; 72 hours): 32% | CD4 expression after treatment (CD4): lost
